Each compound was assayed on KB (nasopharyngeal) (assay: Cytotoxicity). Settings: KB cell line.
Format: cell-based
With `COc1ccc2c3c(c4cc(OC)c(OC)cc4c2c1)C[C@H]1CCCCCN1C3` [Compound 15] the “GI50 KB” value was 102 ± 19 nM.
With `COc1ccc2c3c(c4cc(OC)c(OC)cc4c2c1)C[C@H]1CCCCN1C3` [crypto-pleurine, R-cryptopleurine, reference compound] the “GI50 KB” value was 1.51 ± 0.33 nM.
In the case of `COc1ccc2c3c(c4cc(OC)c(OC)cc4c2c1)C[C@H]1CCCN1C3` [R-antofine, reference compound], the “GI50 KB” value is reported as 36 ± 8 nM.
For `COc1ccc2c3c(c4cc(OC)c(OC)cc4c2c1)C[C@H]1CCOCCN1C3` [Compound 16], the “GI50 KB” value was 68 ± 10 nM.
In the case of `COc1ccc2c3c(c4cc(OC)c(OC)cc4c2c1)C[C@H]1COCCN1C3` [Compound 11, (S)-13-Oxa-cryptopleurine], the “GI50 KB” value is reported as 37 ± 9 nM.

These compounds were tested on A549, DU-145, KB, HCT-8 cancer cell lines (assay: Cytotoxicity screen, stated over the panel of four cancer cell lines). Settings: read-out: GI50 (all tested cancer cell lines).
Format: cell-based
For `COc1ccc2c3c(c4cc(OC)c(OC)cc4c2c1)C[C@H]1CCOCN1C3` [Compound 13, (S)-12-Oxa-cryptopleurine], the GI50 was > 1000 nM.
`COc1ccc2c3c(c4cc(OC)c(OC)cc4c2c1)C[C@H]1CCN(c2ccccc2)CN1C3` [Compound 10b] was tested, and the GI50 was > 20000 nM.
In the case of `COc1ccc2c3c(c4cc(OC)c(OC)cc4c2c1)C[C@H]1CCN(Cc2ccccc2)CN1C3` [Compound 10d], the GI50 is reported as > 20000 nM.
`COc1ccc2c3c(c4cc(OC)c(OC)cc4c2c1)C[C@@H]1CCOCN1C3` [Compound 14, (R)-12-Oxa-cryptopleurine] was tested, and the GI50 was > 1000 nM.

Same assay, conditions: read-out: average GI50
With `COc1ccc2c3c(c4cc(OC)c(OC)cc4c2c1)C[C@H]1CN(c2ccccc2)CN1C3` [Compound 3f] the GI50 was > 20000 nM.

— article PMC3141083 (Journal of medicinal chemistry, 2011)
